Here are results for three molecules from patent publication US12479847B2 (DANA-FARBER CANCER INSTITUTE, INC., priority 2019, dated 2025).

What all share (test): KINOMEscan (ScanMAX) kinase profiling
What all share (assay type): binding

In test [1] the target is T1, panel of 468 kinases (Homo sapiens, UniProt Q6XUX3).
T1 construct: purchased KINOMEscan (ScanMAX) service
T1 sequence (Q6XUX3 1-929): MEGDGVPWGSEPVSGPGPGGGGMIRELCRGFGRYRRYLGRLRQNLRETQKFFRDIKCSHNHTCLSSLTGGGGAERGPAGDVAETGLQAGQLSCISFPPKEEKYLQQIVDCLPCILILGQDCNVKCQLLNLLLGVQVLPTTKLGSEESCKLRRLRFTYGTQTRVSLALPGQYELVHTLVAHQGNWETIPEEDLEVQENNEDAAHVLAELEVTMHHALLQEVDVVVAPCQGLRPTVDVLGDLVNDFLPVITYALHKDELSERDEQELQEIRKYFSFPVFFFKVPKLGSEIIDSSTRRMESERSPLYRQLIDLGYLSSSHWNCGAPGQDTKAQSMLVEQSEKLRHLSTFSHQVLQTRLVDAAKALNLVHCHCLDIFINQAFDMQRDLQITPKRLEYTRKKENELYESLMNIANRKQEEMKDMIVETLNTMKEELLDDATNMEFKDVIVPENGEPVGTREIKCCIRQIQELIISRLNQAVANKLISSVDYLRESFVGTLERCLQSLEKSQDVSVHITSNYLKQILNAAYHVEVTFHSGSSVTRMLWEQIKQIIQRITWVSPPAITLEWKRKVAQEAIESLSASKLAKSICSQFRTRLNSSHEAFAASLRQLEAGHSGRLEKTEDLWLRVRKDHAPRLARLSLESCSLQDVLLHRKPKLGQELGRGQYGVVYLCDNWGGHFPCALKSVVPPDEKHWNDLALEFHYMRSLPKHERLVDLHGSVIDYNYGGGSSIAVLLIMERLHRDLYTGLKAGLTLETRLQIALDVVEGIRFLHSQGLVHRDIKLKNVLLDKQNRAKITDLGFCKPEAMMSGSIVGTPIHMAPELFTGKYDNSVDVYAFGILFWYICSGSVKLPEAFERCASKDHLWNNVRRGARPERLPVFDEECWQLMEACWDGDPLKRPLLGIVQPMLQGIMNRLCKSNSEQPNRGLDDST
As to conditions: RIPK5; 1 μM; read-out: % control.

Test [2] has as its target T2, panel of 468 kinases (Homo sapiens, UniProt Q8TF76).
T2 construct: purchased KINOMEscan (ScanMAX) service
T2 sequence (Q8TF76 1-798): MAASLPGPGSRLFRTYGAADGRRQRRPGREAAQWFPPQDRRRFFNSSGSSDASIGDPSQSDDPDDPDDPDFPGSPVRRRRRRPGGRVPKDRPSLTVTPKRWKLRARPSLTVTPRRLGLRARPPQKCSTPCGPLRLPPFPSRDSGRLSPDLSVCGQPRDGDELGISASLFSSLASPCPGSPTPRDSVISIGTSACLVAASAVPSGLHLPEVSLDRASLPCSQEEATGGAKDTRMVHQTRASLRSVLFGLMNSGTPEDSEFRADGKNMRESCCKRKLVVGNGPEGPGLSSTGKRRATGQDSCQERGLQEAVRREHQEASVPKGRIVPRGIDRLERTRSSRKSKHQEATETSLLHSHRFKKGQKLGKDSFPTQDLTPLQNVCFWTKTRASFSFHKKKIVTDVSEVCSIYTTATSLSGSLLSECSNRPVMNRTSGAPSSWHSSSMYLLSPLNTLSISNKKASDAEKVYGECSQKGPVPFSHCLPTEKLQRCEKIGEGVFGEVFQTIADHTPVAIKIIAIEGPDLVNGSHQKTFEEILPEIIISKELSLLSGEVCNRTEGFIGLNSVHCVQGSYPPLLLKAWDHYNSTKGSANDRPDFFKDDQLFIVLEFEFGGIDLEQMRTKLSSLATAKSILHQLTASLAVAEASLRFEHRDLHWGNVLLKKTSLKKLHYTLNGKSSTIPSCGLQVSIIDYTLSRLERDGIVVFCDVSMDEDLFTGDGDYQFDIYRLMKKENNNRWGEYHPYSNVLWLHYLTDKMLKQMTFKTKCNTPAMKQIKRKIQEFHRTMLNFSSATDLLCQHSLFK
As to conditions: HASPIN; 1 μM; read-out: % control.

The target of test [3] is T3, panel of 468 kinases (Homo sapiens, UniProt O15197).
T3 construct: purchased KINOMEscan (ScanMAX) service
T3 sequence (O15197 32-1021): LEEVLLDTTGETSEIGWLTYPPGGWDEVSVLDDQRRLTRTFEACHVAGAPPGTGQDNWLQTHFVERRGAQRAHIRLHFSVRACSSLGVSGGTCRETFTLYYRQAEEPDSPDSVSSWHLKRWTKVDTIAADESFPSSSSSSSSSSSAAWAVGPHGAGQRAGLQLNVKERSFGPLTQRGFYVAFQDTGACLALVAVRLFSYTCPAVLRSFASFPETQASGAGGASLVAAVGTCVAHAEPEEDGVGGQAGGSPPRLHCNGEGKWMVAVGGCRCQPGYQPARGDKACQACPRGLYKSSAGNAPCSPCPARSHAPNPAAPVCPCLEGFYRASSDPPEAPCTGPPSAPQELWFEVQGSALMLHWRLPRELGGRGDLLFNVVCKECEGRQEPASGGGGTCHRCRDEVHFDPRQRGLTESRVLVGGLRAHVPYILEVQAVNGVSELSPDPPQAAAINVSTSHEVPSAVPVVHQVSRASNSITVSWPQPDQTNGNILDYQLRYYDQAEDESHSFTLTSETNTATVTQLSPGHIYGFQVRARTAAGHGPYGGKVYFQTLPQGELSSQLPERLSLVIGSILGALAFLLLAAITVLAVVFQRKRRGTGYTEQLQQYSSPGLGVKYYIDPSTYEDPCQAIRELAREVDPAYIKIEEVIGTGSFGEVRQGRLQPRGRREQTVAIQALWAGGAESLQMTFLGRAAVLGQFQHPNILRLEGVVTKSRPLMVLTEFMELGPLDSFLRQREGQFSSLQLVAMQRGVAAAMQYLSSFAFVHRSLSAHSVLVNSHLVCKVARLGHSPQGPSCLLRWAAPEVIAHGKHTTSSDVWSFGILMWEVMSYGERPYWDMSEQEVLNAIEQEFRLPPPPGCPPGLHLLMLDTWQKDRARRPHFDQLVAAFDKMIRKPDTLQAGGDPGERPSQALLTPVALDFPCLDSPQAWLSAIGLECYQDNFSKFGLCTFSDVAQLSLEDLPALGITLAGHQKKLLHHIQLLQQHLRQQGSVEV
As to conditions: EPHB6; 1 μM; read-out: % control.

`CNc1nc(Nc2ccc(C(=O)N3CCC(N4CCOCC4)CC3)c3c2OCO3)nc2[nH]cc(Cl)c12` [Compound 75, (7-((5-chloro-4-(methylamino)-7H-pyrrolo[2,3-d]pyrimidin-2-yl)amino)benzo[d][1,3]dioxol-4-yl)(4-morpholinopiperidin-1-yl)methanone]: the remaining binding at 1 µM in test [1] came to 9.9%; in test [2] it was 25%; in test [3], 51%.

Take `CNc1nc(Nc2ccc(P3(=O)CCN(C4CCOCC4)CC3)cc2OC)nc2[nH]cc(Cl)c12` [Compound 77, 4-(4-((5-chloro-4-(methylamino)-7H-pyrrolo[2,3-d]pyrimidin-2-yl)amino)-3-methoxyphenyl)-1-(tetrahydro-2H-pyran-4-yl)-1,4-azaphosphinane 4-oxide]: the remaining binding at 1 µM in test [1] is 20%; in test [2] it was 35%; in test [3] it was 49%.

For the molecule `CNc1nc(Nc2ccc(S(=O)(=O)N3CCC(N4CCOCC4)CC3)cc2OC)nc2[nH]cc(Cl)c12` [Compound 12, 5-chloro-N2-(2-methoxy-4-((4-morpholinopiperidin-1-yl)sulfonyl)phenyl)-N4-methyl-7H-pyrrolo[2,3-d]pyrimidine-2,4-diamine], the figures for the remaining binding at 1 µM in test [1], in test [2] and in test [3] were 23%, 29% and 51%, respectively.
